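Following 48 hours of exposure in 96-well plates, responses at five concentrations were used to interpolate endpoints linearly. GI50: concentration for 50% inhibition of growth.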 The source made the active and inactive calls. Cut-off read from the data, not from the text of the source: active = GI50 up to about 1.1 µM and inactive = higher.
Tests used:
Experiment in all cases: DTP human tumour cell line panel, 48 h
[1] = test system: BT-549
[2] = test system: A498
[3] = test system: A549
[4] = test system: SR
[5] = test system: CCRF-CEM
[6] = test system: OVCAR-4
[7] = test system: PC-3
[8] = test system: HOP-62
[9] = test system: SK-MEL-28
[10] = test system: T47D
[11] = test system: HT-29
[12] = test system: NCI/ADR-RES
[13] = test system: UACC-62
[14] = test system: SK-MEL-5
[15] = test system: M14
[16] = test system: SW-620
[17] = test system: SF-539
[18] = test system: LOX IMVI
[19] = test system: MDA-MB-435
[20] = test system: NCI-H522

Structure (SMILES) | GI50 [1] | GI50 [2] | GI50 [3] | GI50 [4] | GI50 [5] | GI50 [6] | GI50 [7] | GI50 [8] | GI50 [9] | GI50 [10] | GI50 [11] | GI50 [12] | GI50 [13] | GI50 [14] | GI50 [15] | GI50 [16] | GI50 [17] | GI50 [18] | GI50 [19] | GI50 [20]
CC1(C)C(=O)C2(OS(=O)(=O)C(F)(F)F)CCC1C2 (stereo unspecified) | > 100 µM (inactive) | > 100 µM (inactive) | > 100 µM (inactive) | 1 µM (active) | > 100 µM (inactive) | > 100 µM (inactive) | > 100 µM (inactive) | > 100 µM (inactive) | > 100 µM (inactive) | > 100 µM (inactive) | > 100 µM (inactive) | > 100 µM (inactive) | > 100 µM (inactive) | > 100 µM (inactive) | > 100 µM (inactive) | > 100 µM (inactive) | > 100 µM (inactive) | > 100 µM (inactive) | > 100 µM (inactive) | 
CC(C(O)Cc1ccccc1)N(C)/N=N/c1ccc([N+](=O)[O-])cc1 (stereo unspecified) | 19.6 µM (inactive) |  | 23.1 µM (inactive) |  | 29.6 µM (inactive) | 29.9 µM (inactive) | 18.3 µM (inactive) | 16.7 µM (inactive) | 18 µM (inactive) | 23.8 µM (inactive) | 18.6 µM (inactive) | 18.8 µM (inactive) | 18.8 µM (inactive) | 18.6 µM (inactive) | 16.8 µM (inactive) | 23.9 µM (inactive) |  |  | 18.9 µM (inactive) | 
COC(=O)C1=C(C)C=C(N2CCOCC2)C(C(=O)OC)C1c1ccccc1 (stereo unspecified) | > 10 µM (inactive) | > 10 µM (inactive) | > 10 µM (inactive) |  | > 10 µM (inactive) | > 10 µM (inactive) | > 10 µM (inactive) | > 10 µM (inactive) | > 10 µM (inactive) | > 10 µM (inactive) | > 10 µM (inactive) | > 10 µM (inactive) |  | > 10 µM (inactive) | > 10 µM (inactive) | > 10 µM (inactive) | > 10 µM (inactive) | > 10 µM (inactive) | > 10 µM (inactive) | > 10 µM (inactive)
[N-]=[N+]=C(C(=O)OCC#CCOC(=O)C(=[N+]=[N-])S(=O)(=O)c1ccccc1)S(=O)(=O)c1ccccc1 | > 10 µM (inactive) | > 10 µM (inactive) | > 10 µM (inactive) |  | > 10 µM (inactive) | > 10 µM (inactive) | > 10 µM (inactive) | > 10 µM (inactive) | > 10 µM (inactive) | > 10 µM (inactive) | > 10 µM (inactive) | > 10 µM (inactive) | > 10 µM (inactive) | > 10 µM (inactive) | > 10 µM (inactive) | > 10 µM (inactive) | > 10 µM (inactive) | > 10 µM (inactive) | > 10 µM (inactive) | > 10 µM (inactive)
